Laboratory results reported in ChEMBL document CHEMBL1125915, “Novel alkaloids from the tropical plant Ancistrocladus abbreviatus inhibit cell killing by HIV-1 and HIV-2” (J Med Chem, 1991).

Assays:
CEM-SS [1] = experiment: Compound tested for inhibition of the cytopathic effects of HIV-1 upon CEM-SShuman lymphoblastoid target cells in vitro; type: functional, cell-based; details: Homo sapiens
CEM-SS [2] = experiment: Compound tested for cytotoxic effect on uninfected CEM-SS human lymphoblastoid target cell; type: functional, cell-based
CEM-SS [3] = experiment: Compound tested for inhibition of syncytium-forming units (SFU) in HIV-infected CEM-SS cells; Inhibited; type: functional, cell-based; details: Homo sapiens
CEM-SS [4] = experiment: Compound tested for inhibition of P24 (P24 antigen) in HIV-infected CEM-SS cells; Inhibited; type: functional, cell-based; details: Homo sapiens
[5] = target: Human immunodeficiency virus type 1 reverse transcriptase (Human immunodeficiency virus 1) (UniProt Q72547); experiment: Compound tested for inhibition of RT (reverse transcriptase) in HIV-infected CEM-SS cells; Inhibited; type: cell-based

EC50 (CEM-SS [1]) [µM]	inhibition [5]	SMILES	IC50 (CEM-SS [2]) [µM]	inhibition (CEM-SS [3])	inhibition (CEM-SS [4])
20	–	COc1cc(C)cc2c(-c3c(O)cc(O)c4c3C[C@H](C)N[C@H]4C)cc(-c3cc(-c4c(O)cc(O)c5c4C[C@H](C)N[C@H]5C)c4cc(C)cc(OC)c4c3O)c(O)c12 (stereo in doubt; 1) [listing 1 of 2 here]	200	–	–
–	Inhibited	COc1cc(C)cc2c(-c3c(O)cc(O)c4c3C[C@H](C)N[C@H]4C)cc(-c3cc(-c4c(O)cc(O)c5c4C[C@H](C)N[C@H]5C)c4cc(C)cc(OC)c4c3O)c(O)c12 (stereo in doubt; 1) [listing 2 of 2 here]	–	Inhibited	Inhibited
–	Inhibited	COc1cc(C)cc2c(-c3c(O)cc(O)c4c3C[C@H](C)N[C@H]4C)cc(-c3cc(-c4c(O)cc(O)c5c4C[C@H](C)N[C@H]5C)c4cc(C)cc(OC)c4c3O)c(O)c12 (stereo in doubt; 2)	–	Inhibited	Inhibited
